Test results: patent US20070212723A1, “Human sodium channel isoforms” (priority 2006, published 2007)

Experiments:
[1] = tested on: H9c2 cardiomyocytes; conditions: H9c2, serum free medium, 48 h
Description: The rat embryonic cardiomyocyte cell line, H9c2 (ATCC cat # CRL-1446), or acutely isolated neonatal rat heart cardiomyocytes were used. Rat neonatal ventricular cells were isolated from 3-day-old Sprague-Dawley rats (Charles River Laboratories Wilmington, Mass.) using a kit and following the manufacturer's instructions (Worthington Biochemical Corp. Lakewood, N.J.). Cells cultured in Dulbecco's modified Eagle's medium (DMEM; ATCC, Manassas, Va.) with 10% fetal calf serum (ATCC) under standard tissue culture conditions at 37° C. to 70-80% confluence were exposed to AngII (Sigma, St. Louis, Mo.) or H2O2 (Sigma) in serum free culture medium (SFM) for a total of 48 h in triplicate in 24 well plates. Experiments were repeated three times. After dissociation with 0.125% trypsin-EDTA, 20 μL of 0.4% Trypan-blue (Sigma, St. Louis, Mo.) was added to each well, and a Trypan-blue exclusion viability assay was performed.

[2] = biological target: T1, NF-κB binding to the scn5a promoter (Rattus norvegicus, UniProt Q63369+Q7TQN4); test: Electrophoretic mobility shift assay with H9c2 nuclear extracts; type: cell-based
T1 construct: endogenous in cells; host or cells: H9c2 cardiomyocytes (nuclear extract / cross-linked chromatin)
Text: Approximately 5×10^6 cells were scraped for nuclear protein extraction by nuclear extract kit (Activemotif, Carlsbad, Calif.). A double-stranded oligonucleotide containing the consensus-binding sequence (bold) for […] ID NO. 32)) and NF-Kb mutant sequence ([NT] ID NO. 33)) from scn5a promoter were used as probes to assay for binding activity of the nuclear extracts. Protein-DNA complexes were detected using biotin end-labeled double-stranded DNA probes prepared by annealing complementary oligonucleotides. Oligonucleotides were labeled in a reaction using terminal deoxynucleotide transferase and biotin-N4-CTP (Pierce, Rockford, Ill.) following the biotin 3' end DNA labeling kit manual. The binding reaction was performed using the LightShift kit (Pierce). Briefly, 30 μg of nuclear extracts and binding buffer were incubated on ice for 5 min in a volume of 20 μL, then the labeled probe (20 fmol) was added, and the reaction was allowed to incubate for an additional 25 min. Following electrophoresis, the DNA-protein complexes were transferred onto nylon membranes and detected using chemiluminescence. TNF-α activated H9c2 cell nuclear extract (5 μg) was used as positive control. The reaction products were separated on a 6% retardation gel. Specificity was confirmed by addition of unlabelled probe in 200-fold excess.

[3] = biological target: T2, NF-κB p50/p65 subunits on the cardiac Na+ channel promoter (Rattus norvegicus, UniProt Q63369+Q7TQN4); test: Chromatin immunoprecipitation (ChIP) assay in H9c2 cells; type: cell-based
T2 construct: endogenous in cells; host or cells: H9c2 cardiomyocytes (nuclear extract / cross-linked chromatin)
Description: Formaldehyde cross-linking and chromatin immunoprecipitation was performed as described in manufactory's manual (ChIP-IT™ kit, Activemotif). Briefly, proteins were crosslinked with chromatin using 1% formaldehyde in H9c2 cells with or without treatment. The cells were subsequently sonicated in lysis buffer, and an aliquot of the lysate was used in a PCR reaction. The remaining lysate was cleared with protein G beads. One half of the cleared lysate was incubated with p50 or p65 antibody, while the other half was used as a negative control without the antibody. After reversing the cross-linking, the immuno-complex was digested with proteinase K, and the DNA was purified. DNA was analyzed by PCR with the PicoMax Polymerase (Stratagene, La Jolla, Calif.) and primers specific to the APS3 promoter region.

[4] = tested on: scn5a promoter with mutated NF-κB binding site; test: Promoter-reporter assay with mutated NF-κB binding site (APS3-NF-κBm) in H9c2 cells; type: cell-based, rat; conditions: H9c2, 48 h, 100 nM AngII or 20 μM H2O2
[5] = biological target: Na+ current (Homo sapiens, UniProt Q14524); conditions: acute exposure, dependent on PKC activation (Ward et al. 1997); cited from earlier work
[6] = tested on: cardiac sodium channel (scn5a) mRNA; test: Quantitative real-time RT-PCR of scn5a transcripts in H9c2 cells; type: cell-based, rat
[7] = tested on: scn5a promoter; test: scn5a promoter-reporter (pGL3-APS3) dual-luciferase assay in H9c2 cells; type: cell-based, rat; conditions: APS3 construct, H9c2, 20 μM H2O2, 48 h
[8] = tested on: cardiac Na+ channel current; test: Patch-clamp determination of Na+ current in H9c2 cells; type: cell-based, rat; conditions: H9c2, 20 μmol/L H2O2, 48 h, step to -10 mV
Description: Three hours prior to the start of the patch-clamp experiments, H9c2 cells were trypsinized and plated on treated plastic coverslips. H9c2 cells were treated with or without H2O2 as indicated. Glass pipettes were pulled on a Sutter Model P-97 horizontal puller to a resistance of 0.5 to 1.5 MΩ. The glass pipettes were filled with a solution of (in mM) CsCl 60, Cesium Aspartate 80, EGTA sodium 11, HEPES 10, Na2ATP 5 and pH 7.2 with CsOH. The bath solution consisted of (in mM) Na 30, […] chloride 100, CsCl 5, CaCl2 2, MgCl2 1.2, HEPES 10, Glucose 5 and pH 7.4 with NaOH. Once a seal was established, a small amount of suction was applied to obtain the whole cell configuration. From a holding potential of −100 mV, peak currents obtained at −10 mV were used for comparison. Cells were tested at 25° C. Data were sampled at 10 kHz and later filtered at 5 kHz for analysis. Currents were recorded and analyzed with an Axopatch 200B amplifier, Axon Digidata 1230A A/D converter and pClamp software (Molecular Devices Corporation, Sunnyvale, Calif.).

[9] = tested on: cardiac sodium channel (scn5a) mRNA; test: Quantitative real-time RT-PCR of scn5a transcripts in acutely isolated neonatal cardiomyocytes; type: cell-based, rat

T2 sequence (Q63369 1-433 limits assumed): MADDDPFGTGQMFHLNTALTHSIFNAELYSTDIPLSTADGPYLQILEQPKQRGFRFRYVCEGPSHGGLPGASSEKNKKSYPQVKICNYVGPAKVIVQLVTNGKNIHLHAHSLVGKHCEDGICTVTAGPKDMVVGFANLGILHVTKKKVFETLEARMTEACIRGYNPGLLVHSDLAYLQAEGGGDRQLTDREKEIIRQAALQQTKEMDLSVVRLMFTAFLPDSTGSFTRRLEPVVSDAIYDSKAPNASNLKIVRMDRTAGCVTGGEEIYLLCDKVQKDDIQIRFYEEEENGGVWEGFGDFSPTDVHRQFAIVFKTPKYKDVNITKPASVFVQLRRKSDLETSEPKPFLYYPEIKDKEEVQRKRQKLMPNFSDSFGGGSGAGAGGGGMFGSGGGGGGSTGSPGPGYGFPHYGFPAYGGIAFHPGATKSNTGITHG
T2 sequence (Q7TQN4 whole entry): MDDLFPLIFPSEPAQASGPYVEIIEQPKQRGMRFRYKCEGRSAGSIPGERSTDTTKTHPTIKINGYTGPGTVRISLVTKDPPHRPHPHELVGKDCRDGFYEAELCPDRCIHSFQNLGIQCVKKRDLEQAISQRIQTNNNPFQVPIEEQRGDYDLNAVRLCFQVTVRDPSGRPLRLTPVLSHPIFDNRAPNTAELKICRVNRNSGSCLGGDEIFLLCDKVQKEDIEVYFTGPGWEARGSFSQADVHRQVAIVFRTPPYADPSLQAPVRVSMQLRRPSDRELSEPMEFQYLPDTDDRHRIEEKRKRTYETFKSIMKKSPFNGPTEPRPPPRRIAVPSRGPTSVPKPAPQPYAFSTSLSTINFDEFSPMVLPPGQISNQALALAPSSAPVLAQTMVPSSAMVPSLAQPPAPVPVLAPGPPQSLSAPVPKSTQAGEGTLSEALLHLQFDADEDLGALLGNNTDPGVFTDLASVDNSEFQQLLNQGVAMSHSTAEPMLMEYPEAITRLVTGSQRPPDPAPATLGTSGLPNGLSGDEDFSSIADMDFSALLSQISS
T1 sequence (Q63369 1-433 limits assumed): as the sequence (Q63369 1-433 limits assumed) above
T1 sequence (Q7TQN4 whole entry): as the sequence (Q7TQN4 whole entry) above
Chain of Na+ current (Q14524 whole entry): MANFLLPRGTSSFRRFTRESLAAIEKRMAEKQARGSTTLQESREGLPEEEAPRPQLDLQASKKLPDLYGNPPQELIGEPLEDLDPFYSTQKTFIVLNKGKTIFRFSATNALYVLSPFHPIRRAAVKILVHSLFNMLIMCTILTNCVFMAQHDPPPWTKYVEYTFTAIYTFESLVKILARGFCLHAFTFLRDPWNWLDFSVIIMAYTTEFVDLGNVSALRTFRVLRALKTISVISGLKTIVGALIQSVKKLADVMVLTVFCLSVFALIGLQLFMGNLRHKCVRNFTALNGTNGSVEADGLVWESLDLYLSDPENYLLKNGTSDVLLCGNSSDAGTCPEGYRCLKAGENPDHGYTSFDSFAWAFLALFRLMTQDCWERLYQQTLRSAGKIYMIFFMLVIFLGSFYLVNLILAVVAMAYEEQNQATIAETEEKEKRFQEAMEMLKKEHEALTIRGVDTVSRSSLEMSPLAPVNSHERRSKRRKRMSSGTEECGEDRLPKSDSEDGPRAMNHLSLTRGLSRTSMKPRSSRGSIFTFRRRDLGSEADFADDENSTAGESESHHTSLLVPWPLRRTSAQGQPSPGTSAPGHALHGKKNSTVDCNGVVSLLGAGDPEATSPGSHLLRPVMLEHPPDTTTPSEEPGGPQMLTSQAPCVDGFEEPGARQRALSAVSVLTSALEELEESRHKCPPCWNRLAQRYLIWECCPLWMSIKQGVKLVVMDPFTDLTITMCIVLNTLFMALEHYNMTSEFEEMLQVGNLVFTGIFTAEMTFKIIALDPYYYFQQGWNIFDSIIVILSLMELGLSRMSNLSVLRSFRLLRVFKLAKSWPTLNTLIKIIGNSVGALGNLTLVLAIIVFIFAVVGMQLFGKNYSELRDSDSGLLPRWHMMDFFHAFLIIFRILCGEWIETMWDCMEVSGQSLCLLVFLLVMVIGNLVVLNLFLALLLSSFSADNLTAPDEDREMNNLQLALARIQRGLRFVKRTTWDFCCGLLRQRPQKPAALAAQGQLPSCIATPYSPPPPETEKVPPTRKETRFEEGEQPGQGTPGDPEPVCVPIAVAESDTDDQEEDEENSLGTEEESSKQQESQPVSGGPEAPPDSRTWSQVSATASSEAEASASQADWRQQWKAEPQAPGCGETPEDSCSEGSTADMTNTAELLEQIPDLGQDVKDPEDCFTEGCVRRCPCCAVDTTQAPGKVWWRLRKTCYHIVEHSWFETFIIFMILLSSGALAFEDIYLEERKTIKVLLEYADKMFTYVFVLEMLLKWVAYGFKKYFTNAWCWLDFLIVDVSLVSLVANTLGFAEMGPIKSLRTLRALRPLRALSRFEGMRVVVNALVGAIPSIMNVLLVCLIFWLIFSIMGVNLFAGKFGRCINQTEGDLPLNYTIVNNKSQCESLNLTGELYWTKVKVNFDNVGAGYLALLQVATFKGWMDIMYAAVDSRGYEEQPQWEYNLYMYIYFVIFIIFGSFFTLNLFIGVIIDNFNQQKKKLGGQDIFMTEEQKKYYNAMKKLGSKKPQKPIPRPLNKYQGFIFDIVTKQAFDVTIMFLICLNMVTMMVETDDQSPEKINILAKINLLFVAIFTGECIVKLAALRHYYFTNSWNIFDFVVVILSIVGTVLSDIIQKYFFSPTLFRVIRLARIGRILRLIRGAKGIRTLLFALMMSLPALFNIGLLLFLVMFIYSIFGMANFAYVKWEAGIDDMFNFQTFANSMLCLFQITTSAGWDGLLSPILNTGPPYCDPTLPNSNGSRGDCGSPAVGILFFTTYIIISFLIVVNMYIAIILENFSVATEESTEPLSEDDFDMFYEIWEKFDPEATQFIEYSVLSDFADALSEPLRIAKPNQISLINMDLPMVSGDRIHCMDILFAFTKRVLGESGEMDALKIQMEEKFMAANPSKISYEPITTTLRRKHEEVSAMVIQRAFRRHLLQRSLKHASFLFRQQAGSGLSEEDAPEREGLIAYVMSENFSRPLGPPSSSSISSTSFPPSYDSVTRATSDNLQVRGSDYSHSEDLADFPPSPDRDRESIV

CC[C@H](C)[C@H](NC(=O)[C@H](Cc1ccc(O)cc1)NC(=O)[C@@H](NC(=O)[C@H](CCCNC(=N)N)NC(=O)[C@@H](N)CC(=O)O)C(C)C)C(=O)N[C@@H](Cc1cnc[nH]1)C(=O)N1CCC[C@H]1C(=O)N[C@@H](Cc1ccccc1)C(=O)O [AngII, angiotensin II]
AngII concentrations tolerated (cell viability) [1]: 1 to 500 nM

O=C(/C=C/c1ccc(O)c(O)c1)OCCc1ccccc1 [CAPE, caffeic acid phenethyl ester]
effect on NF-κB binding to scn5a promoter probe ([2]; CAPE 10 μM, H9c2 treated with H2O2): blocked | effect on binding of p50 and p65 subunits to the channel promoter ([3]; H9c2, CAPE): could prevent biding of both subunits

OO [H2O2]
NF-κB binding activity to scn5a promoter probe ([2]; H9c2 nuclear extracts, 48 h treatment): increased | change in promoter activity of construct with mutated NF-κB binding site [4]: no significant change in activity | effect on inactivation of the Na+ current [5]: slowing of inactivation | reduction in Na+ channel mRNA ([6]; H9c2, 20 μmol/L H2O2, 48 h): 46.9% | NF-κB subunits on the cardiac Na+ channel promoter ([3]; H9c2, AngII or H2O2 treatment): formation of the complete p50-p65 NF-κB heterodimer | depression of scn5a Na+ channel promoter activity [7]: 42.3% | decrease in peak Na+ current [8]: 46% | reduction in Na+ channel mRNA ([9]; isolated neonatal rat myocytes, 40 nM H2O2, 48 h): 45.4%

catalase
effect on AngII-mediated downregulation of Na+ channel mRNA ([6]; H9c2, pretreatment with PEG-catalase 250 U/mL, AngII 100 nM, 48 h): prevented | effect on AngII-mediated downregulation of Na+ channel mRNA ([9]; neonatal cardiomyocytes, pretreatment with PEG-catalase 250 U/mL, AngII 2 nM, 48 h): prevented
